Reference: ChEMBL document CHEMBL5625268, “Identification of novel benzothiazole derivatives as inhibitors of NEDDylation pathway to inhibit the progression of gastric cancer” (Bioorg Med Chem Lett, 2024)

Legend:
[1] = test system: A549; assay: Antiproliferative activity against human A549 cells by CCK8 assay; type: functional, cell-based
[2] = test system: MGC-803; assay: Antiproliferative activity against human MGC-803 cells by CCK8 assay; type: functional, cell-based
[3] = test system: MCF7; assay: Antiproliferative activity against human MCF7 cells by CCK8 assay; type: functional, cell-based
[4] = test system: KYSE-30; assay: Antiproliferative activity against human KYSE-30 cells by CCK8 assay; type: functional, cell-based
[5] = target: T1, NEDD8-activating enzyme E1 regulatory subunit (Homo sapiens, UniProt Q13564); assay: Inhibition of NAE (unknown origin)
T1 sequence (Q13564 whole entry): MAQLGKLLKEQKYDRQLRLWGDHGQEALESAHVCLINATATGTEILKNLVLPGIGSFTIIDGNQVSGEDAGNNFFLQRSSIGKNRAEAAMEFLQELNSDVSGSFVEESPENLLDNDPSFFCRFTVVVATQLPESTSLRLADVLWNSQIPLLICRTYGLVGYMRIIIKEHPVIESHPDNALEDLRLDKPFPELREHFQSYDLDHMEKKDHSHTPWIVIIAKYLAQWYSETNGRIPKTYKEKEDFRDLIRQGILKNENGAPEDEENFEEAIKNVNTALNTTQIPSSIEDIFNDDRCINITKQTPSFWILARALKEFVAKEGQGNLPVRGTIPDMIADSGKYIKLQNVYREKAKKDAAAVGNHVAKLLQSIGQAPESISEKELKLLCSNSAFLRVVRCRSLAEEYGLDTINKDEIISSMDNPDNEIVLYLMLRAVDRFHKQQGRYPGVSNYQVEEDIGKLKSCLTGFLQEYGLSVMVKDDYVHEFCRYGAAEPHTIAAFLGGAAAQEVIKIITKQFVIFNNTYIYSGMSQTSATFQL

| SMILES | IC50 [1] | IC50 [2] | IC50 [3] | IC50 [4] | IC50 [5] |
| --- | --- | --- | --- | --- | --- |
| O=C(Nc1nc2ccc(NC(=O)C3CCN(Cc4ccccc4)CC3)cc2s1)c1ccc2ccccc2c1 | 7.25 µM | 8.76 µM | 11.9 µM | 3 µM |  |
| O=C(Nc1ccc2nc(NC(=O)C3COc4ccccc4O3)sc2c1)C1CCN(Cc2ccccc2)CC1 (stereo not given) | 11.4 µM | 11 µM | 11.7 µM | 13.8 µM |  |
| Nc1ccc(SCC(=O)Nc2ccc3nc(NC(=O)c4ccc(C(F)(F)F)cc4)sc3c2)cc1 | 41.2 µM | 4.91 µM | > 100 µM | 17.4 µM |  |
| C/C=C/C(=O)Nc1nc2ccc(NC(=O)C3CCN(Cc4ccccc4)CC3)cc2s1 | 12.8 µM | 15.7 µM | 11.9 µM | 17.7 µM |  |
| O=C(Nc1nc2ccc(NC(=O)C3CCN(Cc4ccccc4)CC3)cc2s1)c1ccccc1 | 4.33 µM | 10.9 µM | 4.17 µM | 3.22 µM |  |
| O=C(Nc1nc2ccc(NC(=O)C3CCN(Cc4ccccc4)CC3)cc2s1)c1ccc(-c2ccccc2)cc1 | 8.13 µM | 7.84 µM | 10.7 µM | 2.88 µM |  |
| N#Cc1ccc(C(=O)Nc2nc3ccc(NC(=O)C4CCN(Cc5ccccc5)CC4)cc3s2)cc1 | 3.31 µM | 4.74 µM | 13.1 µM | 1.41 µM |  |
| O=C(Nc1nc2ccc(NC(=O)C3CCN(Cc4ccccc4)CC3)cc2s1)c1ccc(F)cc1 | 4.51 µM | 12.7 µM | 5.74 µM | 1.08 µM |  |
| O=C(Nc1nc2ccc(NC(=O)C3CCN(Cc4ccccc4)CC3)cc2s1)c1ccc2c(c1)OCO2 | 1.35 µM | 1.85 µM | 1.63 µM | 1.33 µM |  |
| O=C(Nc1nc2ccc(NC(=O)C3CCN(Cc4ccccc4)CC3)cc2s1)c1ccc(C(F)(F)F)cc1 | 6.29 µM | 8.53 µM | 4.58 µM | 1.25 µM |  |
| Cc1ccc(C(=O)Nc2nc3ccc(NC(=O)C4CCN(Cc5ccccc5)CC4)cc3s2)cc1 | 2.18 µM | 3.82 µM | 2.78 µM | 1.19 µM |  |
| O=C(Nc1nc2ccc(NC(=O)C3CCN(Cc4ccccc4)CC3)cc2s1)c1cccnc1 | 20.4 µM | 25.6 µM | 23.9 µM | 19.6 µM |  |
| O=C(Nc1nc2ccc(NC(=O)C3CCN(Cc4ccccc4)CC3)cc2s1)c1cccc(F)c1 | 4.94 µM | 13 µM | 7.32 µM | 1.71 µM |  |
| CCCc1ccc(C(=O)Nc2nc3ccc(NC(=O)C4CCN(Cc5ccccc5)CC4)cc3s2)cc1 | 1.28 µM | 1.87 µM | 1.55 µM | 0.91 µM |  |
| O=C(Nc1nc2ccc(NC(=O)C3CCN(Cc4ccccc4)CC3)cc2s1)c1ccc(F)cc1Cl | 3.77 µM | 10.7 µM | 15.9 µM | 2.08 µM |  |
| NS(=O)(=O)OC[C@@H]1C[C@@H](n2ccc3c(N[C@H]4CCc5ccccc54)ncnc32)C[C@@H]1O [PEVONEDISTAT] | 1.64 µM | 1.84 µM |  | 3.75 µM |  |
| COc1cc(C(=O)Nc2nc3ccc(NC(=O)C4CCN(Cc5ccccc5)CC4)cc3s2)cc(OC)c1OC | 5.6 µM | 4.96 µM | 4.15 µM | 1.08 µM |  |
| COc1ccccc1/C=C1\SC(=O)N(CCC(=O)Nc2ccc(S(N)(=O)=O)cc2)C1=O |  |  |  |  | 12 µM |
| O=C(Nc1nc2ccc(NC(=O)C3CCN(Cc4ccccc4)CC3)cc2s1)c1cscn1 | 1.19 µM | 1.69 µM | 0.98 µM | 0.73 µM |  |
| O=C(Nc1nc2ccc(NC(=O)C3CCN(Cc4ccccc4)CC3)cc2s1)c1cccs1 | 1.7 µM | 2.77 µM | 3.24 µM | 1.64 µM |  |
| CCCC(=O)Nc1nc2ccc(NC(=O)C3CCN(Cc4ccccc4)CC3)cc2s1 | 29.1 µM | 30.1 µM | 37.5 µM | 22.7 µM |  |
| O=C(Nc1nc2ccc(NC(=O)C3CCN(Cc4ccccc4)CC3)cc2s1)c1ccco1 | 4.25 µM | 5.09 µM | 7.46 µM | 7.41 µM |  |
| O=C(Nc1nc2ccc(NC(=O)C3CCN(Cc4ccccc4)CC3)cc2s1)c1ccc(Cl)o1 | 2.82 µM | 1.75 µM | 1.88 µM | 1.9 µM |  |
| O=C(Nc1nc2ccc(NC(=O)C3CCN(Cc4ccccc4)CC3)cc2s1)c1ccccc1F | 5.26 µM | 12.9 µM | 11.4 µM | 2.29 µM |  |
| O=C(Nc1nc2ccc(NC(=O)C3CCN(Cc4ccccc4)CC3)cc2s1)c1sccc1F | 1.99 µM | 2.8 µM | 2.35 µM | 2.03 µM |  |
| O=C(Nc1nc2ccc(NC(=O)C3CCN(Cc4ccccc4)CC3)cc2s1)c1sccc1Br | 2.47 µM | 3.31 µM | 2.89 µM | 2.63 µM |  |
| CCOc1cccc(F)c1C#Cc1cn([C@H]2O[C@@H](CNS(N)(=O)=O)[C@H](O)[C@@H]2O)c2ncnc(N)c12 |  |  |  |  | 0.004 µM |
| O=C(Nc1nc2ccc(NC(=O)C3CCN(Cc4ccccc4)CC3)cc2s1)c1ccc(F)c(F)c1 | 5.58 µM | 6.85 µM | 8.54 µM | 1.82 µM |  |
